Columns and labels:
Type in all cases: in vivo
[1] = test system: Rice Armyworm (Mythimna Separata); assay: Efficacy test against rice armyworm, corn leaf dip; details: 125 ppm, emulsifiable concentrate diluted with water, corn leaves immersed, second instar larvae, after 5 days, 25° C.
Experimental: (§1) Test Examples of the pest control agent thus obtained according to the present invention are shown below. In respective Test Examples, the insecticidal rate (%) was determined by the following calculation equation. Insecticidal rate (%)=(number of dead pests/number of released pests)×100
The emulsifiable concentrate obtained according to Formulation of Formulation Example 2 was diluted with water so as to control the concentration of the compound to 125 ppm. Leaves of corn were immersed in this diluted solution for 30 seconds and then air-dried. The leaves were put in a petri dish on which a filter paper is laid, and then five second instar larvae of rice armyworm were inoculated. After covering the petri dish with a glass lid, the petri dish was placed in a temperature-controlled room at a temperature of 25° C. and a humidity of 65%. After 5 days, life and death were examined and the insecticidal rate was determined. The test was repeated twice.

[2] = test system: Cotton Aphid (Aphis Gossypii); assay: Efficacy test against cotton aphid, spray on cucumber plant; details: 125 ppm, emulsifiable concentrate diluted with water, sprayed over cucumber plant with nymphs, after 5 days, 25° C.
Experimental: as §1
The emulsifiable concentrate obtained according to Formulation of Formulation Example 2 was diluted with water so as to control the concentration of the compound to 125 ppm. Adults of cotton aphids were inoculated to a cucumber plant (approximately 10 days after sprouting) sown in a 3 sun/size pot (9 cm). After 1 day, adult aphids were removed and the diluted solution was sprayed over the cucumber plant on which delivered nymphs are parasitic. The pot was placed in a temperature-controlled room at a temperature of 25° C. and a humidity of 65%. After 5 days, life and death were examined and the insecticidal rate was determined. The test was repeated twice.

[3] = test system: Sweetpotato Whitefly (Bemisia Tabaci); assay: Efficacy test against sweetpotato whitefly, sprayed tomato leaf; details: 125 ppm, emulsifiable concentrate diluted with water, adults (type B), after 2 days, 25° C.
Experimental: as §1
The emulsifiable concentrate obtained according to Formulation of Formulation Example 2 was diluted with water so as to control the concentration of the compound to 125 ppm. The diluted solution was sprayed over a tomato leaf obtained by cutting and then air-dried. Using absorbent cotton, the leaf was fixed to a flask so that a front surface of the leaf faces upward. Seven pairs of adults of sweetpotato whitefly (type B) were inoculated in this container, and the container was placed in a temperature-controlled room at a temperature of 25° C. and a humidity of 65%. After 2 days, life and death were examined and the insecticidal rate was determined. The test was repeated twice.

[4] = test system: Twospotted Spider Mite (Tetranychus Urticae Koch); assay: Efficacy test against twospotted spider mite, spray on kidney bean plant; details: 125 ppm, wettable powder diluted with water, sprayed, female adults with resistance to an organophosphorus agent on kidney bean, after 3 days
Experimental: The wettable powder obtained according to Formulation of Formulation Example 1 was diluted with water so as to control the concentration of the compound to 125 ppm. Seventeen female adults of twospotted spider mite with resistance to an organophosphorus agent were inoculated on a first true leaf of a kidney bean plant (approximately 7 to 10 days after sprouting) sown in a 3 sun/size pot (9 cm). The diluted solution was sprayed. The pot was placed in a temperature-controlled room at a temperature of 25° C. and a humidity of 65%. After 3 days, the adulticidal rate was examined. The test was repeated twice.

CC(C)=C1CCC(=CSc2ccccc2)C(=Nc2ccc(C)cc2)S1 (mixture of isomers) [Compound 6-1]
100%: insecticidal rate [1] | insecticidal rate [2] | insecticidal rate [3] | adulticidal rate [4]

C=C1SC(=Nc2ccc(C)cc2)C(=CSc2ccccc2)CC1c1ccccc1 (racemic) [Compound 2-15]
100%: insecticidal rate [1] | insecticidal rate [2] | insecticidal rate [3] | adulticidal rate [4]

CC(C)=C1CCC(=C\Sc2ccccc2)/C(=N/c2ccc(Cl)cc2)S1 [Compound 2-2, (4-chloro-phenyl)-{6-isopropylidene-3-[1-phenylsulfanyl-(E)-methylidene]-tetrahydro-thiopyran-(2Z)-ylidene}-amine]
100%: insecticidal rate [1] | insecticidal rate [2] | insecticidal rate [3] | adulticidal rate [4]

CC/C=C1/CCC(=C\Sc2ccccc2)/C(=N/c2ccc(Cl)cc2)S1 [Compound 2-3]
100%: insecticidal rate [1] | insecticidal rate [2] | insecticidal rate [3] | adulticidal rate [4]

C=C1CCC(=CSc2ccccc2)C(=Nc2ccc(C)cc2)S1 [Compound 2-4]
100%: insecticidal rate [1] | insecticidal rate [2] | insecticidal rate [3] | adulticidal rate [4]

C=C1CCC(=CSc2ccc(F)cc2)C(=Nc2ccc(C)cc2)S1 [Compound 2-6]
100%: insecticidal rate [1] | insecticidal rate [2] | insecticidal rate [3] | adulticidal rate [4]

C=C1SC(=N\c2ccc(C)cc2)/C(=C/Sc2ccccc2)CC1(C)C [Compound 2-11, {5,5-dimethyl-6-methylene-3-[1-phenylsulfanyl-(E)-methylidene]-tetrahydro-thiopyran-(2Z)-ylidene}-p-tolyl-amine]
100%: insecticidal rate [1] | insecticidal rate [2] | insecticidal rate [3] | adulticidal rate [4]

C=C1SC(=Nc2ccc(Cl)cc2)C(=CSc2ccccc2)CC1(C)C [Compound 2-12]
100%: insecticidal rate [1] | insecticidal rate [2] | insecticidal rate [3] | adulticidal rate [4]

C=C1SC(=Nc2ccc(Cl)cc2)C(=CSc2ccc(F)cc2)CC1(C)C [Compound 2-13]
100%: insecticidal rate [1] | insecticidal rate [2] | insecticidal rate [3] | adulticidal rate [4]

C=C1CCC(=CSc2ccccc2)C(=[NH+]c2ccc(C)cc2)S1.F[B-](F)(F)F [Compound 2-14]
100%: insecticidal rate [1] | insecticidal rate [2] | insecticidal rate [3] | adulticidal rate [4]

C=C1SC(=Nc2ccc(C)cc2)C(=CSc2ccccc2)CC12CCCCC2 [Compound 2-17]
100%: insecticidal rate [1] | insecticidal rate [2] | insecticidal rate [3] | adulticidal rate [4]

C=C1SC(=Nc2ccc(C)cc2)C(=CSc2cccc(OC)c2)CC1(C)C [Compound 2-20]
100%: insecticidal rate [1] | insecticidal rate [2] | insecticidal rate [3] | adulticidal rate [4]

C=C1SC(=Nc2ccc(OC)c(C)c2)C(=CSc2ccccc2)CC1(C)C [Compound 2-34]
100%: insecticidal rate [1] | insecticidal rate [2] | insecticidal rate [3] | adulticidal rate [4]

C=C1SC(=Nc2ccc(Cl)c(Cl)c2)C(=CSc2ccccc2)CC1(C)C [Compound 2-35]
100%: insecticidal rate [1] | insecticidal rate [2] | insecticidal rate [3] | adulticidal rate [4]

C=C1SC(=Nc2cccc(C(F)(F)F)c2)C(=CSc2ccccc2)CC1(C)C [Compound 2-36]
100%: insecticidal rate [1] | insecticidal rate [2] | insecticidal rate [3] | adulticidal rate [4]

C=C1SC(=Nc2ccc(OC)cc2C)C(=CSc2ccccc2)CC1(C)C [Compound 2-40]
100%: insecticidal rate [1] | insecticidal rate [2] | insecticidal rate [3] | adulticidal rate [4]

C=C1SC(=Nc2ccc(OC)cc2C)C(=CSc2ccc(F)cc2)CC1(C)C [Compound 2-41]
100%: insecticidal rate [1] | insecticidal rate [2] | insecticidal rate [3] | adulticidal rate [4]

C=C1SC(=Nc2ccc(OC)cc2)C(=CSc2ccc(F)cc2)CC1(C)C [Compound 2-46]
100%: insecticidal rate [1] | insecticidal rate [2] | insecticidal rate [3] | adulticidal rate [4]

C=C1SC(=Nc2ccc(C)cc2)C(=CSc2ccc(F)cc2)CC1(C)C [Compound 2-48]
100%: insecticidal rate [1] | insecticidal rate [2] | insecticidal rate [3] | adulticidal rate [4]

C=C1SC(=Nc2ccc(OC)cc2)C(=CSc2ccccc2OC)CC1(C)C [Compound 2-49]
100%: insecticidal rate [1] | insecticidal rate [2] | insecticidal rate [3] | adulticidal rate [4]

C=C1SC(=Nc2ccc(C)cc2)C(=CSc2ccccc2)CC12CCOCC2 [Compound 2-56]
100%: insecticidal rate [1] | insecticidal rate [2] | insecticidal rate [3] | adulticidal rate [4]

C=C1SC(=Nc2ccc(C)cc2C)C(=CSc2ccccc2)CC1(C)C [Compound 2-64]
100%: insecticidal rate [1] | insecticidal rate [2] | insecticidal rate [3] | adulticidal rate [4]

C=C1SC(=Nc2ccc(C)cc2)C(=CSc2ccccc2)CC1CC (stereo not shown) [Compound 2-68]
100%: insecticidal rate [1] | insecticidal rate [2] | insecticidal rate [3] | adulticidal rate [4]

C=C1SC(=Nc2ccc(OC)cc2)C(=CSc2ccc(C#N)cc2)CC1(C)C [Compound 2-70]
100%: insecticidal rate [1] | insecticidal rate [2] | insecticidal rate [3] | adulticidal rate [4]

C=C1SC(=Nc2ccc(C)cc2)C(=CSc2cccs2)CC1(C)C [Compound 2-71]
100%: insecticidal rate [1] | insecticidal rate [2] | insecticidal rate [3] | adulticidal rate [4]

C=C1SC(=Nc2ccc(C)cc2)C(=CSc2ccc(C#N)cc2)CC1(C)C [Compound 2-72]
100%: insecticidal rate [1] | insecticidal rate [2] | insecticidal rate [3] | adulticidal rate [4]

C=C1SC(=Nc2ccc(C)cc2)C(=CSc2ccccc2)CC1CCC (stereo not shown) [Compound 2-75]
100%: insecticidal rate [1] | insecticidal rate [2] | insecticidal rate [3] | adulticidal rate [4]

C=C1SC(=Nc2ccc(C)cc2)C(=CSc2ccccc2)CC1C (stereo not shown) [Compound 2-76]
100%: insecticidal rate [1] | insecticidal rate [2] | insecticidal rate [3] | adulticidal rate [4]

C=C1SC(=Nc2ccc(C)cc2)C(=CSc2cccs2)CC1C (stereo not shown) [Compound 2-77]
100%: insecticidal rate [1] | insecticidal rate [2] | insecticidal rate [3] | adulticidal rate [4]

C=C1SC(=Nc2ccc(C)cc2)C(=CSc2ccsc2)CC1(C)C [Compound 2-78]
100%: insecticidal rate [1] | insecticidal rate [2] | insecticidal rate [3] | adulticidal rate [4]

C=C1SC(=Nc2ccc(C)cc2)C(=CSc2ccc(C)s2)CC1(C)C [Compound 2-79]
100%: insecticidal rate [1] | insecticidal rate [2] | insecticidal rate [3] | adulticidal rate [4]

C=C1SC(=Nc2ccc(C)cc2)C(=CSc2ccc(OC)s2)CC1(C)C [Compound 2-80]
100%: insecticidal rate [1] | insecticidal rate [2] | insecticidal rate [3] | adulticidal rate [4]

C=C1SC(=Nc2ccc(OC)cc2)C(=CSc2ccsc2)CC1(C)C [Compound 2-81]
100%: insecticidal rate [1] | insecticidal rate [2] | insecticidal rate [3] | adulticidal rate [4]

C=C1SC(=Nc2ccc(OC)cc2)C(=CSc2ccc(C)s2)CC1(C)C [Compound 2-83]
100%: insecticidal rate [1] | insecticidal rate [2] | insecticidal rate [3] | adulticidal rate [4]
